Ends that are not written are not given here. Peptide text beside a SMILES is read from it. * marks the point of attachment. Cbz = O=C(OCc1ccccc1)*; CH2F = FC*
Tests used:
HeLa cells [1] = assay: Apoptosis by hypodiploid DNA content, propidium iodide flow cytometry; format: cell-based, Human; details: 24 hours
Method: For determination of apoptosis by hypodiploid DNA content, various tumor cell lines were incubated with increasing concentrations of the cell permeable control scrambled (SEQ ID NO:25) or Survivin peptide (SEQ ID NO:19), harvested after 24 hours (floaters plus attached cells) fixed in 70% ethanol, and stained with 10 μg/ml propidium iodide plus 100 μg/ml RNAse A and 0.05% Triton™ X-100 in PBS, pH 7.4. Cultures were analyzed for DNA content by flow cytometry. For colorimetric quantification of cell viability, an MTT assay was used. Various tumor cell lines were incubated with increasing concentrations of the cell permeable retro-inverso control scrambled P4 or the Survivin-specific P3 peptide, incubated for 24 hours at 37° C. washed twice with Bruffs Media, and 4,5-dimethylthiazol-2-yl)-2,5-diphenyltetrazolium bromide (MTT) (Sigma, St. Louis, Mo.) was added at 5 mg/ml. Decrease in cell viability was analyzed for loss of colorimetric absorption at OD405.
HeLa cells were incubated with the indicated increasing concentrations of the cell permeable Control (scrambled) or Survivin peptide, harvested after 24 hours at 37° C., and analyzed by hypodiploid DNA content by propidium iodide staining and flow cytometry.
HeLa cells were incubated with chemotherapeutic drugs Taxol™ (10 μM) or adriamycin (300 nM), or cell permeable control peptide or the Survivin peptide, harvested after 24 hours, and analyzed for induction of apoptosis by hypodiploid DNA content by flow cytometry.

Hsp90 = target: T1, Hsp90 (Homo sapiens, UniProt P07900); assay: Surface plasmon resonance of immobilized biotin peptides with r-Hsp90; format: binding
T1 construct: GST-Hsp90 (amino acids 1-732); GST (N); made in house; host or cells: E. coli
Method: Wild type Survivin peptide 77 to 91 (SEQ ID NO:22) or the corresponding C84A mutant 77-91 peptide (HKKHSSGAAFLSVKK; SEQ ID NO:23) was synthesized with an N-terminal biotin and immobilized on streptavidin coated chips (SA5) purchased from Biacore Inc. (Piscataway, N.J.). Increasing concentrations (100 nM-10 μM) of purified r-Hsp90 suspended in 10 mM HEPES, 150 mM NaCl, 3 mM EDTA, 0.005% polysorbate-20, 1 mM DTT, were then injected in […] over the immobilized peptides. A constant flow rate of […] was maintained, and the dissociation phase was followed for 300 seconds. Surfaces were regenerated using […] of 1 M NaCl/50 mM NaOH after each dissociation phase. A new injection cycle was initiated only after 10 min post-regeneration to ensure complete removal of NaCl and NaOH. The collected data were analyzed using the Biaeval 3.0 software package from Biacore Inc.
Sensorgrams (FIG. 10B) indicate binding of the Survivin peptides to Hsp90, measured by an increase in surface plasmon resonance during analyte flow over the chip surface, with the nonspecific signal from the biotin-only surface subtracted.

HeLa cells [2] = assay: Proteasome or caspase inhibitor effect on GA-mediated Survivin/XIAP degradation, Western blotting; format: cell-based, Human; details: for reversal of loss of XIAP expression caused by GA: HeLa cell extracts, GA with inhibitor
Method: Extracts from HeLa cells treated with 1 μM GA for 30 hours in the presence or absence of 5 μM of the proteasome inhibitor lactacystin were analyzed for changes in Survivin or β-actin levels by Western blotting. Antibodies to actin were obtained from Sigma. […] Levels of β-actin were unaffected by treatment in this experiment.
HeLa cell extracts were collected after exposure to the indicated concentrations of GA in the absence (None) or in the presence of the proteasome inhibitor, lactacystin or the broad spectrum caspase inhibitor, ZVAD-fink. Loss of XIAP expression in the presence of Hsp90 inhibition by GA is reversed by lactacystin but not ZVAD-fink, as indicated by Western blotting for XIAP depicted in FIG. 5C (* indicates non-specific band).

HL-60 cells = assay: Cell killing by trypan blue exclusion; format: cell-based
Method: The expression and function of the survivin-Hsp90 pathway in acute myelogenous leukemia (AML) cell lines was analyzed. Survivin was abundantly expressed in four AML cell lines, U937, K-562, THP-1 and HL-60, by Western blotting (FIG. 29A).

[3] = test system: DU145, PC3, HeLa tumor cell lines; assay: MTT colorimetric viability assay, tumor cell lines; format: cell-based; details: increasing concentrations, 24 hours
Method: (§1) FIGS. 22A and 22B compares the effect of P31 (SEQ ID NO:19) or P33 (SEQ ID NO:25) on apoptosis of tumor cell lines (FIG. 22A) and normal cell lines (FIG. 22B). The following tumor cell lines DU145 (prostate cancer, circles), PC3 (prostate cancer, triangles), or HeLa (cervical carcinoma, squares) were treated with the indicated increasing concentrations of P31 peptide (solid symbols) or control P33 peptide (open symbols), harvested after 24 hours, and analyzed for cell viability using an MTT colorimetric assay. For normal cell types (right panel), HFF (human foreskin fibroblasts, squares), HGF (human fibroblasts, triangles) or WS-1 (human epithelial cells, circles) were treated with P31 (solid symbols) or control scrambled peptide P33, harvested after 24 hours and analyzed for overall cell viability by MTT colorimetric assay. All cell lines were from ATCC.

HeLa cells [4] = assay: Stability of Hsp90 client proteins and caspase-3 proform, Western blot; format: cell-based, Human; details: increasing concentrations, 24 hours
Method: To determine whether intracellular loading of the Survivin cell permeable peptide reproduced the effect of mAb 8E2 that disrupts the Survivin-Hsp90 interaction in destabilizing Survivin levels in vivo (FIG. 8), HeLa cells were loaded with the indicated increasing concentrations of cell permeable control (SEQ ID NO:25) or Survivin (SEQ ID NO:19) cell permeable peptide, harvested after 24 hours, and analyzed for stability of Hsp90 client proteins, Survivin and Akt. Polyclonal antibody to Akt was obtained from Cell Signaling Technology (Cat. No. 9272).

HeLa cells [5] = assay: Annexin V labeling and propidium iodide multiparametric flow cytometry; format: cell-based, Human; details: increasing concentrations, eight hour incubation, 37° C.
Method: HeLa cell cultures were treated with the indicated increasing concentrations of P31 (Survivin) or P33 (Control; SEQ ID NO:25) peptides, harvested after an eight hour incubation at 37° C., and analyzed for multiparametric flow cytometry of Annexin V labeling (X-axis, a marker of apoptosis) and propidium iodide staining (Y-axis, a marker of cell death).

PC3 cells = assay: Immunoblotting of Hsp90 client proteins; format: cell-based; details: 75 and 150 μM, 8 hours
Method: Survivin affects the stability and function of Hsp90 client proteins in tumor cells. PC3 cells were untreated or exposed to 75 and 150 μM concentrations of the survivin peptide (SEQ ID NO:19) (or control scrambled peptide; SEQ ID NO:25) for 8 hours and processed for immunoblotting against the Hsp90 client proteins survivin, AKT, and CDK-6. […] Conversely, the levels of Hsp90, Hsp70, and PCNA were not affected (FIG. 26A).

[6] = test system: HFF, HGF, WS-1 normal cells; assay: MTT colorimetric viability assay, normal cell types; format: cell-based, human; details: 24 hours
Method: as §1

[7] = test system: U937, K562, HL60, THP1 AML cell lines; assay: MTT cell viability in AML cell lines; format: cell-based, human
Method: FIG. 30 is a graph depicting killing activity of survivin K79-G83 in AML cells. The indicated human AML cell lines (U937, K562, HL60, and THP1) were incubated with scrambled (SEQ ID NO:28) or Survivin (SEQ ID NO:20) peptides and evaluated for cell viability by MTT.
The effect of the K79-G83 Survivin peptide was characterized in more detail for anti-tumor activity in AML. The K79-L87 (SEQ ID NO:19) and K79-G83 peptides (SEQ ID NO:20) were incubated with AML cells, and cell viability was measured using MTT.

recombinant Hsp90 = target: T2, recombinant Hsp90 (Homo sapiens, UniProt P07900, S63T); assay: ELISA binding to recombinant Hsp90
T2 construct: GST-Hsp90 (amino acids 1-732); GST (N); made in house; host or cells: E. coli
Excerpt: (§2) FIG. 31 is a graph depicting Hsp90 binding by Survivin peptides, measured by ELISA. Data are the mean±S.D. of two independent experiments.

survivin-Hsp90 = target: T3, survivin-Hsp90 (Homo sapiens, UniProt P07900, S63T); assay: ELISA inhibition of recombinant survivin binding to Hsp90
T3 construct: GST-Hsp90 (amino acids 1-732); GST (N); made in house; host or cells: E. coli
Excerpt: as §2

[8] = test system: HL-60 and THP-1 AML cell lines; assay: MTT cell viability, short versus full length peptide; format: cell-based; details: 4×10^5 cells
Method: FIGS. 29B-29D are graphs depicting killing of AML cells by Survivin peptides. FIG. 29B depicts survivin peptide activity in HL-60 cells, measured by Trypan blue exclusion. FIGS. 29C and 29D depict killing, as measured using MTT, of HL-60 (FIG. 29C) or THP-1 (FIG. 29D) cells by full length Survivin peptide (SEQ ID NO:19), Survivin peptide K79-G83 (SEQ ID NO:20), or scrambled peptide (SEQ ID NO:25 and SEQ ID NO:28).
The activity of a shorter Survivin peptide was also tested in an AML cell line. A shorter cell permeable Survivin peptide was synthesized by fusing the third α-helix of the Antennapedia carrier sequence to the amino-terminus of the Survivin peptide sequence K79-G83 (SEQ ID NO:20). […] The scrambled control peptide ([…]; SEQ ID NO:28) was ineffective (FIGS. 29C, D). For these experiments a higher number of cells was used (4×10^5) to produce a 50% killing efficiency by full length survivin peptide.

[9] = target: T4, Hsp90-Survivin binding interactions (Homo sapiens, UniProt P07900, S63T); assay: ELISA: Survivin peptides inhibiting Hsp90 binding to immobilized Survivin; details: 20 μg/ml peptide preincubated with Hsp90, 16 hours, 4° C.
T4 construct: GST-Hsp90 (amino acids 1-732); GST (N); made in house; host or cells: E. coli
Method: ELISA experiments were performed by immobilizing recombinant Survivin (r-Survivin) ([…]) or recombinant Hsp90 (r-Hsp90) (10 μg/ml) on plastic microtiter wells (Immulon™-2, Dynatech Laboratories, Chantilly, Va.) using bicarbonate buffer, pH 9.5 (100 μl/well) for 18 hours at 4° C. Bound protein was blocked with 3% gelatin for 1 hour at 37° C., rinsed with washing buffer (TBS pH 7.4, 0.1% Tween™, 0.1% BSA) and incubated for 1 hour at 37° C. with different concentrations of a test protein to determine if the test protein bound the immobilized protein.
ELISA experiments were performed essentially as in Example 2 with the following variations. 20 μg/ml of each recombinant Survivin peptide (expressed in E. coli) was preincubated with Hsp90 at 2.5 mg/ml for 16 hours at 4° C. After binding and blocking of full length Survivin to wells in a microtiter plate, the preincubated mixtures of Hsp90 and Survivin peptides were added to the wells and incubated for 1 hour at 37° C. Wells were washed, incubated with primary antibody, washed again, and bound antibody was quantified as described above. Each experiment was repeated three times and the standard deviation is shown.

In the case of `CC(=O)O[C@H]1C(=O)[C@@]2(C)[C@H]([C@H](OC(=O)c3ccccc3)[C@]3(O)C[C@H](OC(=O)[C@H](O)[C@@H](NC(=O)c4ccccc4)c4ccccc4)C(C)=C1C3(C)C)[C@]1(OC(C)=O)CO[C@@H]1C[C@@H]2O` [Taxol, paclitaxel], the “loss of cell viability by hypodiploid DNA content” value (HeLa cells [1]; 10 μM) is reported as “does not result in significant loss of cell viability”.

“HKKHSSGAAFLSVKK (Synthetically generated peptide) [SEQ ID NO:23, C84A mutant 77-91 peptide]” was tested, and the “on-rates, wild type versus C84A peptide” value (Hsp90) was “similar”.

For `COc1cccc2c1C(=O)c1c(O)c3c(c(O)c1C2=O)C[C@@](O)(C(=O)CO)C[C@@H]3O[C@H]1C[C@H](N)[C@H](O)[C@H](C)O1` [adriamycin], the “loss of cell viability by hypodiploid DNA content” value (HeLa cells [1]; 300 nM) was “does not result in significant loss of cell viability”.

In the case of `CC(=O)N[C@@H](CSC(=O)[C@]1([C@@H](O)C(C)C)NC(=O)[C@H](C)[C@@H]1O)C(=O)O` [lactacystin], the “Survivin levels following lactacystin and GA treatment” value (HeLa cells [2]; 1 μM GA for 30 hours, 5 μM lactacystin) is reported as “at or above the levels of untreated cells” and the “reversal of loss of XIAP expression caused by GA” value (HeLa cells [2]) is reported as “reversed”.

“RQIKIWFQNRRMKWKKSKLACFSHG (Synthetically generated peptide) [P33, reference compound]” was tested, and the “cell killing (trypan blue exclusion)” value (HL-60 cells) was “ineffective”, the “cell death in cancer cell lines (MTT)” value [3] was “did not induce cell death in cancer or normal cell types” and the “levels of Survivin and Akt” value (HeLa cells [4]) was “ineffective”. The “induction of apoptosis (Annexin V / propidium iodide)” value (HeLa cells [5]) was “ineffective”, the “Hsp90 client proteins (survivin, Akt, CDK-4, CDK-6)” value (PC3 cells) was “not” and the “cell population with hypodiploid DNA content (apoptotic)” value (HeLa cells [1]; peptides, comparison with chemotherapeutic drugs) was “not”. For the same compound, the “cell death in normal cell types (MTT)” value [6] was “did not induce cell death in cancer or normal cell types” and the “cell viability (MTT), killing of AML cell lines” value (“cell viability (MTT), killing” below) [7] was “no effect”.

“RQIKIWFQNRRMKWKKKHSSG (Synthetically generated peptide) [SEQ ID NO:20]” was tested, and the “binding to recombinant Hsp90 in vitro” value (recombinant Hsp90) was “comparably bound recombinant Hsp90”, the “inhibition of binding of recombinant survivin to Hsp90” value (survivin-Hsp90) was “inhibited the binding of recombinant survivin to Hsp90 in a dose-dependent manner” and the “reduction of cell viability (MTT)” value [8] was “considerably more active than the P31 peptide”. The “cell viability (MTT), killing” value [7] was “efficiently killed all AML cell lines tested”.

With `COC(=O)C[C@H](NC(=O)[C@H](C)NC(=O)[C@@H](NC(=O)OCc1ccccc1)C(C)C)C(=O)CF` [ZVAD-fink, Z-Val-Ala-Asp (OMe)-CH2F] (Cbz-Val-Ala-Asp(OMe)-CH2F) the “reversal of loss of XIAP expression caused by GA” value (HeLa cells [2]) was “not”.

“RQIKIWFQNRRMKWKKSGKHS (Synthetically generated peptide) [SEQ ID NO:28, scrambled control peptide for K79-G83, reference compound]” was tested, and the “reduction of cell viability (MTT)” value [8] was “ineffective” and the “cell viability (MTT), killing” value [7] was “no effect”.

With KHSSGCAFLSVK [SEQ ID NO:3] the “inhibition of Hsp90-Survivin binding interactions” value [9] was “especially effective inhibitor”.
